Measured values taken from patent US6221870A, “Ergoline derivatives and their use as somatostatin receptor antagonists” (Novartis AG, priority 1997, dated 2001).

What was measured:
[1] = target: T1, native rat sst1 receptors (Rattus norvegicus, UniProt P28646); test: affinity for native rat sst1 receptors (radioligand binding); settings: read-out: pIC50, affinity for native rat sst1 receptors (converted)
T1 construct: native rat sst1 receptors
From the text: (§1) In particular the agents of the invention bind to somatostatin receptors. More particularly they are selective antagonists at Somatostatin sst1 receptors, previously called SSTR-1 receptors (see Hoyer et al., TIPS, 1995, 16; 86-88), as determined in radioligand binding and second messenger studies [see for example K Kaupmann et al., FEBS LETTERS 1993, 331: 53-59].
(§2) For all above indications the preferred compound is the compound of example 1 below.

[2] = target: T2, native human sst1 receptors (Homo sapiens, UniProt P30872); test: affinity for native human sst1 receptors (radioligand binding); settings: read-out: pIC50, affinity for native human sst1 receptors (converted)
T2 construct: native and recombinant human sst1 receptors
T2 sequence (P30872 whole entry): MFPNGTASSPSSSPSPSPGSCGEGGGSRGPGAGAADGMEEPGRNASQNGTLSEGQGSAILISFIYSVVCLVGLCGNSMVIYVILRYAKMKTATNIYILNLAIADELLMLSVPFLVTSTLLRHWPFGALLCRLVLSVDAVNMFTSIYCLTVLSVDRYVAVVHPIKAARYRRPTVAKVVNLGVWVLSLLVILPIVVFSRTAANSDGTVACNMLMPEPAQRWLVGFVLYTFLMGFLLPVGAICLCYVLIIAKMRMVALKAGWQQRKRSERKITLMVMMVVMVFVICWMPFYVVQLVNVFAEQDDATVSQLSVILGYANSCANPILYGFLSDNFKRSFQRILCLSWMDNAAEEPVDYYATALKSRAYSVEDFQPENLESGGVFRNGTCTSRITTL
From the text: as §1, §2

[3] = target: T3, recombinant human sst1 receptors (Homo sapiens, UniProt P30872); test: affinity for recombinant human sst1 receptors (radioligand binding); settings: read-out: pIC50, affinity for recombinant human sst1 receptors (converted)
T3 construct: expressed in transfected cells
T3 sequence (P30872 whole entry): as above
From the text: as §1, §2

[4] = system: neurotransmitter receptors; test: activity for a wide range of neurotransmitter receptors; format: binding
From the text: as §2

intruder mouse = intruder mouse test; format: in vivo; settings: for potency compared with the compound of example 1, intruder mouse test: standard drugs at 3-30 mg/kg s.c.
mice = test: Matched Pairs Situation test in mice; format: in vivo, mouse; settings: for lowering of aggressive behavior (Matched Pairs Situation test), standard drugs: 3-30 mg/kg s.c.; for potency compared with the compound of example 1, Matched Pairs Situation test: standard drugs at 3-30 mg/kg s.c.
[5] = known drawback; cited from earlier work

T1 sequence (P28646 whole entry): as the sequence (P30872 whole entry) above, with S8P, S11T, P16S, S20G, G25V, G26C, A32S, A45S, T385A, T389S counted along it

Compound | IC50 [1] [nM] | IC50 [2] [nM] | IC50 [3] [nM] | activity for a wide range of neurotransmitter receptors [4] | social withdrawal in the intruder mouse test (intruder mouse; 3-30 mg/kg p.o.) | aggressive behavior in the Matched Pairs Situation test (mice; 3-30 mg/kg p.o.) | potency compared with the compound of example 1, intruder mouse test (intruder mouse) | lowering of aggressive behavior (Matched Pairs Situation test), standard drugs (mice) | potency compared with the compound of example 1, Matched Pairs Situation test (mice) | therapeutic window [5]
CN1C[C@H](C(=O)N2CCN(c3cccc(=O)n3C)CC2)C[C@@H]2c3cccc4[nH]c(Br)c(c34)C[C@H]21 [Example 1, [5R, 8R, 10R]-2-Bromo-9,10-dihydro-lysergic-acid-4-(1-methyl-1H-pyrid-6-on-2-yl)-piperazine-amide] | 0.2 | 1 | 1.58 | without significant activity | reverses social withdrawal | clearly lowers aggressive behavior |  |  |  | 
NC(=O)N1c2ccccc2C=Cc2ccccc21 [carbamazepine] |  |  |  |  |  |  | less potent | These effects are also observed | less potent | narrow therapeutic window
lithium |  |  |  |  |  |  | less potent | These effects are also observed | less potent | narrow therapeutic window
